The results in this text go back to patent publication US20070025974A1, “Amylases producing an altered immunogenic response and methods of making and using the same” (priority 2003, published 2007).

The test system of the experiment is human CD4+ T-cells. Briefly: I-MUNE assay: T-cell proliferation (tritiated thymidine) with dendritic cells and CD4+ T-cells. Type of experiment: cell-based. As to conditions: approximately 5 Lf/mL.

On to tetanus toxoid, for which the “positive control proliferative response” value is given as “robust positive control responses”.
